According to the supplement of paper PMC4862054:
Values joined by “and” are separate entries in the source; they are usually repeats but may differ in a detail not shown here. Identical values can stand only once.

How the values were obtained:
Conditions in all cases: incubation time: 72 h
BT-474 [1] = assay: normalised response (% of control), CellTiter-Glo; higher = more viable cells (100 = DMSO, 0 = benzethonium chloride kill control)
Procedure, shortened: (§1)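 Two readouts were taken after 72 h: CellTox Green fluorescence (485/520 nm) first, then CellTiter-Glo luminescence after 10 min at room temperature. Breast cancer cell lines had been seeded as 20 µl suspension into 384-well plates holding compound at 5 concentrations in 10-fold steps across a compound-specific 10,000-fold range. Each value is a normalised signal at a single concentration, with plates scaled to 0.1 % DMSO (100) and a positive kill control (0).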

BT-549 [2] = assay: as above
Procedure, shortened: as §1

CAL-120 [3] = assay: as above
Procedure, shortened: as §1

CAL-148 [4] = assay: as above
Procedure, shortened: as §1

CAL-51 [5] = assay: as above
Procedure, shortened: as §1

CAL-85-1 [6] = assay: as above
Procedure, shortened: as §1

DU-4475 [7] = assay: as above
Procedure, shortened: as §1

HCC1143 [8] = assay: as above
Procedure, shortened: as §1

HCC1599 [9] = assay: as above
Procedure, shortened: as §1

HCC1937 [10] = assay: as above
Procedure, shortened: as §1

HDQ-P1 [11] = assay: as above
Procedure, shortened: as §1

Hs578T [12] = assay: as above
Procedure, shortened: as §1

MCF-10A = assay: as above
Procedure, shortened: as §1

MDA-MB-231 [13] = assay: as above
Procedure, shortened: as §1

MDA-MB-436 [14] = assay: as above
Procedure, shortened: as §1

MDA-MB-453 [15] = assay: as above
Procedure, shortened: as §1

MDA-MB-468 [16] = assay: as above
Procedure, shortened: as §1

MFM-223 [17] = assay: as above
Procedure, shortened: as §1

SK-BR-3 [18] = assay: as above
Procedure, shortened: as §1

BT-474 [19] = assay: normalised viability (% of control), CellTiter-Blue; higher = more viable cells (100 = DMSO, 0 = benzethonium chloride kill control)
Procedure, shortened: (§2)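 Compound dissolved in 5 µl medium was pre-loaded into 384-well plates, and breast cancer cell lines in 20 µl suspension were seeded on top and incubated 72 h. After adding 2.5 µl CellTiter-Blue reagent for 2 h at 37 °C, fluorescence was read at 560/590 nm. Plates were normalised to vehicle (100) and a positive kill control (0), with Z'-factor quality control. Each value is normalised viability at a single listed concentration from the series.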

BT-549 [20] = assay: as above
Procedure, shortened: as §2

CAL-120 [21] = assay: as above
Procedure, shortened: as §2

CAL-148 [22] = assay: as above
Procedure, shortened: as §2

CAL-51 [23] = assay: as above
Procedure, shortened: as §2

CAL-85-1 [24] = assay: as above
Procedure, shortened: as §2

DU-4475 [25] = assay: as above
Procedure, shortened: as §2

HCC1143 [26] = assay: as above
Procedure, shortened: as §2

HCC1599 [27] = assay: as above
Procedure, shortened: as §2

HCC1937 [28] = assay: as above
Procedure, shortened: as §2

HDQ-P1 [29] = assay: as above
Procedure, shortened: as §2

Hs578T [30] = assay: as above
Procedure, shortened: as §2

MDA-MB-231 [31] = assay: as above
Procedure, shortened: as §2

MDA-MB-436 [32] = assay: as above
Procedure, shortened: as §2

MDA-MB-453 [33] = assay: as above
Procedure, shortened: as §2

MDA-MB-468 [34] = assay: as above
Procedure, shortened: as §2

MFM-223 [35] = assay: as above
Procedure, shortened: as §2

SK-BR-3 [36] = assay: as above
Procedure, shortened: as §2

Structure (SMILES)	normalised response (BT-474 [1]) [%]	normalised response (BT-549 [2]) [%]	normalised response (CAL-120 [3]) [%]	normalised response (CAL-148 [4]) [%]	normalised response (CAL-51 [5]) [%]	normalised response (CAL-85-1 [6]) [%]	normalised response (DU-4475 [7]) [%]	normalised response (HCC1143 [8]) [%]	normalised response (HCC1599 [9]) [%]	normalised response (HCC1937 [10]) [%]	normalised response (HDQ-P1 [11]) [%]	normalised response (Hs578T [12]) [%]	normalised response (MCF-10A) [%]	normalised response (MDA-MB-231 [13]) [%]	normalised response (MDA-MB-436 [14]) [%]	normalised response (MDA-MB-453 [15]) [%]	normalised response (MDA-MB-468 [16]) [%]	normalised response (MFM-223 [17]) [%]	normalised response (SK-BR-3 [18]) [%]	normalised viability (BT-474 [19])	normalised viability (BT-549 [20])	normalised viability (CAL-120 [21])	normalised viability (CAL-148 [22])	normalised viability (CAL-51 [23])	normalised viability (CAL-85-1 [24])	normalised viability (DU-4475 [25])	normalised viability (HCC1143 [26])	normalised viability (HCC1599 [27])	normalised viability (HCC1937 [28])	normalised viability (HDQ-P1 [29]) [%]	normalised viability (Hs578T [30])	normalised viability (MDA-MB-231 [31])	normalised viability (MDA-MB-436 [32])	normalised viability (MDA-MB-453 [33])	normalised viability (MDA-MB-468 [34])	normalised viability (MFM-223 [35])	normalised viability (SK-BR-3 [36])
COc1cc2c(Oc3ccc(NC(=O)C4(C(=O)Nc5ccc(F)cc5)CC4)cc3F)ccnc2cc1OCCCN1CCOCC1 [Foretinib] (0.1 nM)	105	104	100	109	74.1	100	102	99	93.4	99.2	105	89.5	97.2	99.7	107	109	108	102	107	99.9%	94.6%	92.1%	107%	91.8%	90.2%	100%	100%	98.9%	101%	75.8	110%	102%	95.8%	95%	101%	97%	89%
NC(=O)NO [Hydroxyurea] (10 nM)	98.6	108	96.7	101	74.9	98.5	106	104	101	91.6	97.3	101	110	98.3	90.1	110	103	105	113	97.2%	99.2%	98.9%	107%	100%	109%	123%	102%	113%	95.8%	116	107%	101%	109%	105%	112%	104%	52%
O=NN(CCCl)C(=O)NC1CCCCC1 [Lomustine] (1 nM)	101	94.2	99.1	94.4	91.6	97.6	93.9	105	105	94.9	97.2	106	107	97.5	98.2	108	99.3	97.5	104	88%	107%	91.6%	107%	108%	98.8%	102%	95.2%	109%	86.3%	110	100%	97.3%	109%	114%	100%	83.4%	93.6%
O=C(O)CC[C@H]1CC[C@@](c2cc(F)ccc2F)(S(=O)(=O)c2ccc(Cl)cc2)CC1 [MK-0752] (0.1 nM)	101	103	95.5	101	68.8	99.5	97.5	102	79.3	100	97.8	98.7	116	104	101	116	102	106	111	119%	117%	88.8%	106%	98.2%	100%	106%	99.7%	103%	84.8%	99.9	106%	99.2%	109%	117%	96.7%	102%	94.4%
NC1(c2ccc(-c3nc4ccn5c(=O)[nH]nc5c4cc3-c3ccccc3)cc2)CCC1 [MK-2206] (0.1 nM)	101	99.5	112	110	87.9	98.7	101	102	87.8	100	103	97.2	107	106	98.3	98.9	103	112	110	115%	114%	106%	106%	99.9%	108%	118%	118%	94.9%	129%	113	107%	106%	108%	105%	111%	100%	107%
NC(=O)c1cccc2cn(-c3ccc([C@@H]4CCCNC4)cc3)nc12 [MK-4827] (1 nM)	113	102	101	115	99.9	102	98.1	105	110	102	100	103	102	101	96.9	99.3	104	101	112	121%	112%	90.2%	105%	108%	82.1%	102%	92.1%	97.1%	97.3%	85.9	94.2%	96%	80.8%	97.8%	91.7%	92.2%	95.5%
O=C(c1cc(Cc2n[nH]c(=O)c3ccccc23)ccc1F)N1CCN(C(=O)C2CC2)CC1 [Olaparib] (1 nM)	96.7	103	92.4	93	114	103	102	93.1	101	90.5	95.9	99.9	92.8	99.1	104	103	99	96.7	102	85.8%	86%	73.8%	87.1%	103%	87.6%	94.1%	88.4%	89.9%	102%	96.9	99.7%	84.8%	113%	92.7%	95.3%	91%	91.2%
CO[C@H](C(=O)[C@@H](O)[C@@H](C)O)[C@@H]1Cc2cc3cc(O[C@H]4C[C@@H](O[C@@H]5C[C@@H](O)[C@H](O)[C@@H](C)O5)[C@H](O)[C@@H](C)O4)c(C)c(O)c3c(O)c2C(=O)[C@H]1O[C@H]1C[C@@H](O[C@@H]2C[C@@H](O)[C@@H](O[C@@H]3C[C@](C)(O)[C@H](O)[C@@H](C)O3)[C@@H](C)O2)[C@H](O)[C@@H](C)O1 [Plicamycin] (1 nM)	104	102	113	112	92.5	102	107	92.6	102	96.9	101	102	103	99.8	95	108	113	106	108	106% and 92.2%	93% and 90.1%	82.5% and 79.1%	111% and 108%	102% and 112%	87.5% and 82.1%	112% and 109%	96.8% and 82.4%	101% and 107%	97.7% and 85%	111	113% and 92.7%	94% and 98.7%	108% and 92.6%	95.5% and 109%	96.7% and 101%	91.7% and 84.2%	93.3% and 88.4%
